Test results from the supplement of paper PMC8967900.

What was measured:
Experiment in all cases: selective drug sensitivity score (sDSS, relative to normal bone marrow) (sDSS (score)); higher = more potent and effective on the cell line relative to normal bone marrow cells
Settings in all cases: 72 h
CCRF-CEM = tested on: CCRF-CEM
COG-LL-355h = tested on: COG-LL-355h
DND-41 = tested on: DND-41
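Note: ALL cell lines in 384-well plates, five doses spanning 10,000-fold, each plate scaled between vehicle and 100 µmol/L benzalkonium chloride controls, sDSS an adapted area-under-curve metric.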

Structure (SMILES) | selective drug sensitivity score (CCRF-CEM) | selective drug sensitivity score (COG-LL-355h) | selective drug sensitivity score (DND-41)
CCOCc1nc2c(N)nc3ccccc3c2n1CC(C)(C)O [Resiquimod] (top concentration 10000 nM) | -4.92 | -4.92 | -4.92
CCCN(CCC)C(=O)C1=Cc2ccc(-c3ccc(C(=O)N4CCCC4)cc3)cc2N=C(N)C1 [Motolimod] (top concentration 10000 nM) | -3.38 | -2.38 | -4.08
Cc1cc(F)c(C(=O)Nc2cccc(-c3nncn3C(C)C)n2)cc1-n1cnc(C2CC2)c1 [Selonsertib] (top concentration 1000 nM) | 0 | 0 | 0
Cc1cnc(NC(=O)Nc2cc(Br)c(C)cc2OC[C@@H]2CNCCO2)cn1 [Rabusertib] (top concentration 1000 nM) | 0.06 | 1.96 | 6.16
Nc1cc(COc2c(Cl)cc(C[C@H](N)C(=O)O)cc2Cl)c2oc(-c3ccccc3)nc2c1 [JPH203] (top concentration 5000 nM) | 0 | 1.5 | 0
Oc1ccc2c(c1)CC[C@H](c1ccccc1)[C@@H]2c1ccc(OCCN2CCCC2)cc1 [Lasofoxifene] (top concentration 1000 nM) | -1.08 | -1.28 | -1.28
CN(CC(=O)N(Cc1ccc(C2CCCCC2)cc1)c1ccc(C(=O)O)cc1)S(=O)(=O)c1c(F)c(F)c(F)c(F)c1F [SH-4-54] (top concentration 25000 nM) | -4.54 | -0.54 | -2.74
O=C(O)CNC(=O)c1c(O)c2ccccc2n(Cc2ccccc2)c1=O [IOX-2] (top concentration 50000 nM) | -0.82 | -0.82 | -0.82
C[C@]12CC[C@H](O)CC1=CC[C@@H]1[C@@H]2CC[C@]2(C)C(c3cccnc3)=CC[C@@H]12 [Abiraterone] (top concentration 5000 nM) | -0.12 | -0.12 | -0.12
CS(=O)(=O)CCNCc1ccc(-c2ccc3ncnc(Nc4ccc(OCc5cccc(F)c5)c(Cl)c4)c3c2)o1 [Lapatinib] (top concentration 1000 nM) | 0 | 0 | 0
Cc1cc2c(C(=O)NC[C@H](C)c3ccccc3)c(O)c(O)cc2c(O)c1-c1c(C)cc2c(C(=O)NC[C@H](C)c3ccccc3)c(O)c(O)cc2c1O [Sabutoclax] (top concentration 25000 nM) | 13.8 | 15.6 | 10.6
COc1cc2ncnc(Nc3ccc(F)c(Cl)c3)c2cc1NC(=O)/C=C/CN1CCCCC1 [Dacomitinib] (top concentration 1000 nM) | 0.26 | 1.06 | -1.04
COc1cc(Br)c(Nc2nc(-c3c(C)nc4ncccn34)cs2)c(Br)c1 [PTC-209] (top concentration 10000 nM) | 0.52 | -0.38 | -1.18
Cc1ccc(F)c(NC(=O)Nc2ccc(-c3cccc4[nH]nc(N)c34)cc2)c1 [Linifanib] (top concentration 1000 nM) | -1.02 | -1.12 | -0.02
C=CC(=O)N1CCC(Oc2cc3c(Nc4ccc(Cl)c(Cl)c4F)ncnc3cc2OC)CC1 [Poziotinib] (top concentration 1000 nM) | -0.22 | -0.22 | 2.08
COc1cc2ncnc(Nc3cccc(Cl)c3F)c2cc1OC(=O)N1CCN(C)C[C@H]1C [AZD3759] (top concentration 1000 nM) | -0.04 | -0.04 | -0.04
CCCOc1ccn2c(C(C)=O)cc(-c3ccccc3S(C)(=O)=O)c2c1 [GSK2801] (top concentration 10000 nM) | -0.26 | -0.36 | -0.26
CCn1cc(-c2ccnc3[nH]c(-c4cccc(CN(C)C)c4)cc23)c(-c2ccc(NC(=O)N(C)C)cc2)n1 (top concentration 1000 nM) | 18 | 8.36 | -0.84
Cc1c(Cn2c(C)nc3c(C(=O)O)cc(N4CCOCC4)cc32)cccc1C(F)(F)F (top concentration 10000 nM) | 0.38 | 1.98 | 1.78
C=CCc1cccc(/C=N/NC(=O)CN2CCN(Cc3ccccc3)CC2)c1O [PAC-1] (top concentration 10000 nM) | 5.18 | 2.08 | 4.78
COCCOc1cnc2ccn([C@H](C)c3nnc4c(F)cc(-c5cnn(C)c5)cn34)c(=O)c2c1 [AMG-337] (top concentration 10000 nM) | -0.06 | -0.06 | -0.06
CC[C@H](C)C(=O)O[C@H]1C[C@H](O)C=C2C=C[C@H](C)[C@H](CC[C@@H](O)C[C@@H](O)CC(=O)O)[C@H]21 [Pravastatin] (top concentration 10000 nM) | -0.46 | -0.56 | -0.66
O=C1c2c(O)ccc(O)c2C(=O)c2c(NCCNCCO)ccc(NCCNCCO)c21 [Mitoxantrone] (top concentration 1000 nM) | 10.8 | 7.94 | 2.84
CC1(C)CNc2cc(NC(=O)c3cccnc3NCc3ccncc3)ccc21 [Motesanib] (top concentration 10000 nM) | -0.22 | -0.22 | -0.22
CC1=C2C[C@H]3[C@@H](CC[C@@H]4C[C@H](NS(C)(=O)=O)CC[C@@]43C)[C@@H]2CC[C@@]2(C1)O[C@@H]1C[C@H](C)CN[C@H]1[C@H]2C [Saridegib] (top concentration 10000 nM) | -0.46 | -0.96 | 4.74
CN[C@@H](C)C(=O)N[C@H]1CN(C(=O)CC(C)C)CC[C@H]2CC[C@@H](C(=O)NC(c3ccccc3)c3ccccc3)N2C1=O [AT-406] (top concentration 10000 nM) | 1.34 | 8.04 | -1.26
CC/C(=C(\c1ccccc1)c1ccc(OCCN(C)C)cc1)c1ccccc1 [Tamoxifen] (top concentration 10000 nM) | 0.82 | 1.82 | 3.72
